The values that follow come from US20100183600A1, “RAF Inhibitors and Their Uses” (ARQULE, INC., priority 2008, published 2010).

The structures appear in SMILES notation. Structures can show the parent of a compound that is named as a salt.

One data set deals with SK-MEL-28. The data set can be described thus: Cell growth inhibition assay (MTS). Type of data set: cell-based. Conditions: Homo sapiens; SK-MEL-28, 72 hours. The procedure:
(§1) Compounds of the present invention have been tested for activity against a variety of cancer cell lines. The ability of compounds to inhibit cell growth in this assay is correlated with the reduction of dehydrogenase enzyme activity found in metabolically active cells.
(§2) Materials: A large variety of cancer cells from ATCC were maintained at 37° C., 5% CO2 in DMEM media supplemented with 10% fetal bovine serum, penicillin/streptomycin and fungizone (Invitrogen). NCM460 (Incell), a normal colon epithelial cell line, and human mammary epithelial cells (Cambrex) were maintained at 37° C., 5% CO2 in DMEM and HEBM media (Cambrex), respectively.
(§3) Methods: Test compounds were dissolved and diluted to 300× in DMSO then diluted 1:40 in DMEM. Cells were seeded into 96-well tissue culture plates at 1-5×10^3 per well and cultured at 37° C. for 24 h. Cells were incubated with test compounds for 72 hours followed by incubation with tetrazolium compound (3-(4,5-dimethylthiazol-2-yl)-5-(3-carboxymethoxyphenyl)-2-(4-sulfophenyl)-2H-tetrazolium, inner salt; MTS) and the electron coupling reagent, phenazine methosulfate (PMS) for 4 hr. […] The measurement of the absorbance of the formazan was assessed using an ENVISION™ (Perkin Elmer) microplate reader at 492 nm. The calculated IC50 value is the concentration of the test compound that causes a 50% decrease in the absorbance.

For another data set, the system named is A375. The data set can be described thus: Cell growth inhibition assay (MTS). Type of data set: cell-based. Conditions: Homo sapiens, A-375, 72 h, A375, 72 hours. The method, then:
as §1, §2, §3

The test system of another data set is RKO. The data set can be described thus: Cell growth inhibition assay (MTS). The conditions noted are these: Homo sapiens, 72 hours. Format: cell-based. The procedure: as §1, §2, §3
For another data set, the system named is WM-266-4. The data set is described as follows: Cell growth inhibition assay (MTS). Format: cell-based. The conditions noted are these: Homo sapiens; WM-266-4, 72 hours. The method, then:
as §1, §2, §3

The test system of the next data set is SK-MEL-2. The data set is described as follows: Cell growth inhibition assay (MTS). Type of data set: cell-based. The conditions noted are these: Homo sapiens; SK-MEL-2, 72 hours. The method, then: as §1, §2, §3
In the next data set the test system is DLD-1. The data set is described as follows: Cell growth inhibition assay (MTS). Type of data set: cell-based. Conditions: Homo sapiens; DLD-1, 72 hours. The procedure:
as §1, §2, §3

For another data set, the target named is T1, mutant B-RAF (Homo sapiens, UniProt P15056, V600E).
T1 construct: purchased Upstate (Charlottesville, Va.)
T1 sequence (P15056 whole entry V600E): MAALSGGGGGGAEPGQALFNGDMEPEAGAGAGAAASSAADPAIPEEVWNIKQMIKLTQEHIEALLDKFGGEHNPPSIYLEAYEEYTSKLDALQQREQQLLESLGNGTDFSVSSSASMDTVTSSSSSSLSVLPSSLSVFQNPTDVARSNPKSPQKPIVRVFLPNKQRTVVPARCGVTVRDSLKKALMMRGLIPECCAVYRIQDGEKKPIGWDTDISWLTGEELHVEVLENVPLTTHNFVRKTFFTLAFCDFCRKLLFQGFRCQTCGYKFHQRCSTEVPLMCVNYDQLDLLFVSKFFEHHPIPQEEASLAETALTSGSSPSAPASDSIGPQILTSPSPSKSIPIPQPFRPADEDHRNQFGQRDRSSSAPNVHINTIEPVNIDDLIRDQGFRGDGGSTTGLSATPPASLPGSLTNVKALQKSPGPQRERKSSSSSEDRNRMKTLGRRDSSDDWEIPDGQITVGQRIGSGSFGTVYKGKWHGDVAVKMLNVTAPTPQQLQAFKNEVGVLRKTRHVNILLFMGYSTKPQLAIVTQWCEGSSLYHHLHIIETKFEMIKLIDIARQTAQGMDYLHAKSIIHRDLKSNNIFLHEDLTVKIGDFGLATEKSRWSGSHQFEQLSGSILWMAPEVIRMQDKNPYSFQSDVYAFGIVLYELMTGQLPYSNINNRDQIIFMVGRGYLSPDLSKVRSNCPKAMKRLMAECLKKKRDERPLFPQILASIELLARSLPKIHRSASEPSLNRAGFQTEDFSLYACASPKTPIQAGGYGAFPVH
The data set is described as follows: Measurement of RAF activity (MEK-1 phosphorylation). Type of data set: biochemical. Conditions: 50 μM ATP, MEK-1 substrate; read-out: Mut-B-Raf IC50. The procedure:
Materials: The RAF kinases and the anti-phospho MEK1/2 antibody were from Upstate (Charlottesville, Va.). The RAF substrate used was full length N-terminal GST-MEK-1, which was expressed in E. coli and purified in-house by HPLC. All proteins were aliquoted and stored at −80° C. Superblock™ in phosphate buffered saline (PBS) blocking reagent was form Pierce (cat. #37515). ATP was from Roche (cat. # 19035722). Alkaline Phosphatase-tagged goat anti-rabbit antibody was from Pierce (cat. # 31340).
Methods: All RAF biochemical assays were performed using an assay buffer containing 20 mM MOPS, 5 mM EGTA, 37.5 mM MgCl2, 1 mM DTT and 50 μM ATP. There was 6.25 ng/well mutant B-RAF and 7.5 ng/well MEK-1 in the final assay conditions. Compounds were serially diluted in assay buffer containing 1% DMSO and 20 μl of test compound at a concentration 3-fold more than the final concentration, and were added to a polypropylene V-well reaction plate. Vehicle control wells received buffer only with DMSO at equivalent concentrations to the test wells. […] These reaction plates were incubated at room temperature for 30 minutes. Capture of MEK-1 was initiated by transferring 50 μl of the reaction mixture to a Nunc Maxisorp™ microplate that is designed for non-specific protein capture. After 30 minute capture of MEK-1 at room temperature, this plate was washed with TBST (6×200 μL/well) to fully terminate the reaction. The plate was then blocked for 1 hour by the addition of 100 μl/well of Superblock™ in phosphate buffered saline (PBS) blocking reagent. Plate was again washed with TBST (6 times with 200 μl/well), followed by the addition of 70 μl/well of Upstate anti-phospho MEK ½ diluted 1:1000 in Pierce Superblock (PBS). After a 60 minute incubation, this plate was washed with TBST (6 times with 200 μl/well), and 70 μl of the secondary antibody (Pierce Alkaline Phosphatase tagged goat anti-rabbit) prepared at 1:4000 in Superblock, were added. After a 45 minute incubation at room temperature, the wells of the microplate were washed with TBST (6 times with 200 μl/well), and thereafter 100 μl/well of Attophos™ fluorescent alkaline phosphatase substrate was added according to the manufacturer's instructions (JBL Scientific). Fluorescence was read on a Perkin Elmer Envision multilabel reader, using the following filters: Excitation Filter: CFP430 nM, Emission Filter: Emission Filter 579 nM.

For a further data set, the system named is p-Erk (A375). The data set is described as follows: Cell-based phosphorylation assay with electroblotting readout. Set-up: species or system human. The conditions noted are these: Homo sapiens, A-375; A375 cells, 1 hr. The text has this:
Compounds of the present invention have been screened for their ability to inhibit all isoforms, both wild-type and mutant of RAF kinases (A-RAF, B-RAF and C-RAF) in general, and the mutant B-RAF (V600E) in particular in human cancer cells. A375 is a human melanoma cell line that harbors the most common B-RAF mutation-V600E found in human cancers. The ability of compounds to inhibit RAF kinases in this assay is correlated with the reduction of MEK and ERK phosphorylation, and is therefore a direct indicator of potential in vivo therapeutic activity.
Materials: A375 cells from ATCC were maintained at 37° C., 5% CO2 in DMEM media supplemented with 10% fetal bovine serum, penicillin/streptomycin and fungizone. (Invitrogen)
Methods: Test compounds were dissolved and diluted 1:1000 in DMSO. A375 cells were seeded in six-well tissue culture plates at 5-8×10^5 per well and cultured at 37° C. for 24 h. Cells were incubated with compounds for one hour before being lysed in EPage™ loading buffer (Invitrogen). Lysates were electrophoresed on 8% EPage™ gels and transferred to polyvinylidene difluoride membranes. After incubations with primary and secondary antibodies, the immunostained proteins were detected and quantitated by an Odyssey infrared imager (LI-COR). Analysis was performed by non-linear regression to generate a dose response curve. The calculated IC50 value was the concentration of the test compound that causes a 50% decrease in phospho-MEK and phospho-ERK levels. The primary antibodies used were anti-MEK (Stressgen), anti-ERK (BD Biosciences), anti-phospho-ERK and anti-phospho-MEK (Cell Signaling). The secondary antibodies used were IRDYE800 anti-rabbit, IRDYE 800 anti-mouse (Rockland), AlexaFluor680 anti-mouse and AlexaFluoro680 anti-rabbit (Invitrogen).
A375 cells were treated with 0, 12, 37, 111, 333 and 1000 nM of indicated compounds for 1 hr. The levels of Phospho-ERK and total-ERK were accessed by immunoblotting.

One may read the GI50 as the concentration at which growth is held to half of that of the control. Broadly, the IC50 is the concentration that inhibits the measured activity by half. By EC50 is commonly meant the concentration giving half of the maximal effect. A high value points to a less potent agent. As to `Cn1ccc(S(=O)(=O)N2CCC(Nc3nccc(-c4c(-c5cccc(O)c5)nc5occn45)n3)CC2)n1` [Compound 20, 3-(5-(2-(1-(1-methyl-1H-pyrazol-3-ylsulfonyl)piperidin-4-ylamino)pyrimidin-4-yl)imidazo[2,1-b]oxazol-6-yl)phenol], the 50% growth inhibitory concentration (GI50) in the data set on SK-MEL-28 is 393 nM; in the data set on A375 it was under 0.4 nM; in the data set on RKO, 372 nM; with WM-266-4, 2 nM; in the data set with SK-MEL-2 it was 310 nM; with DLD-1 it was 9470 nM. For the same molecule, the concentration for half-maximal inhibition (IC50) on mutant B-RAF was 13 nM. This molecule also returned a half-maximal effective concentration (EC50) in the data set with p-Erk (A375) of 73 nM.

Turning to `O=S(=O)(C1CC1)N1CCC(Nc2nccc(-c3c(-c4cccc(O)c4)nc4occn34)n2)CC1` [Compound 11, 3-(5-(2-(1-(cyclopropylsulfonyl)piperidin-4-ylamino)pyrimidin-4-yl)imidazo[2,1-b]oxazol-6-yl)phenol], the 50% growth inhibitory concentration (GI50) in the data set with SK-MEL-28 is 555 nM; with A375 it was under 0.4 nM; with RKO, 323 nM; in the data set with WM-266-4 it was 3 nM; with SK-MEL-2, 2040 nM; in the data set on DLD-1 it was 13900 nM. Besides, at mutant B-RAF, the IC50 was 48 nM. This molecule also returned an EC50 with p-Erk (A375) of 53 nM.

What is called melting point is the temperature of the solid-liquid transition. `O=P(O)(O)Oc1cccc(-c2nc3sccn3c2-c2cccc(N[C@@H]3CCCN(S(=O)(=O)c4ccc(Cl)cc4)C3)c2)c1` (as salt: phosphate) returned a melting point of 239 to 245 °C.

`Cn1ccc(S(=O)(=O)N2CCC[C@@H](Nc3nccc(-c4c(-c5cccc(O)c5)nc5sccn45)n3)C2)n1` [Compound 14, (R)-3-(5-(2-(1-(1-methyl-1H-pyrazol-3-ylsulfonyl)piperidin-3-ylamino)pyrimidin-4-yl)imidazo[2,1-b]thiazol-6-yl)phenol]: the 50% growth inhibitory concentration (GI50) in the data set with SK-MEL-28 was determined as 74 nM; with A375, 2 nM; with RKO, 122 nM; in the data set on WM-266-4, 5 nM; in the data set on SK-MEL-2, 170 nM; in the data set on DLD-1 it was 3000 nM. Moreover, the concentration for half-maximal inhibition (IC50) at mutant B-RAF stood at 6 nM. The molecule also displayed a 50% effective concentration (EC50) with p-Erk (A375) of 2 nM.

`O=S(=O)(c1ccc(Cl)cc1)N1CCC[C@@H](Nc2nccc(-c3c(-c4cccc(O)c4)nc4occn34)n2)C1` [Compound 4, (R)-3-(5-(2-(1-(4-chlorophenylsulfonyl)piperidin-3-ylamino)pyrimidin-4-yl)imidazo[2,1-b]oxazol-6-yl)phenol]: the GI50 stood at 1120 nM with SK-MEL-28; 0.54 nM in the data set with A375; 1810 nM in the data set with RKO; 15 nM in the data set with WM-266-4; 1800 nM with SK-MEL-2; 15400 nM in the data set with DLD-1. In addition, the concentration for half-maximal inhibition (IC50) on mutant B-RAF was determined as 10 nM. For the same molecule, the 50% effective concentration (EC50) in the data set on p-Erk (A375) was determined as 35 nM.

Take `O=S(=O)(c1ccc(Cl)cc1)N1CCC(Nc2nccc(-c3c(-c4cccc(O)c4)nc4sccn34)n2)CC1` [Compound 7, 3-(5-(2-(1-(4-chlorophenylsulfonyl)piperidin-4-ylamino)pyrimidin-4-yl)imidazo[2,1-b]thiazol-6-yl)phenol]: the GI50 was 88 nM in the data set with SK-MEL-28; under 0.4 nM in the data set on A375; 85 nM in the data set on RKO; 6 nM in the data set on WM-266-4; 519 nM in the data set on SK-MEL-2; 5520 nM with DLD-1. For the same molecule, the IC50 on mutant B-RAF is 8 nM. Moreover, a half-maximal effect with p-Erk (A375) (EC50) was put at 82 nM.

Regarding `O=S(=O)(c1ccc(F)cc1)N1CCC(Nc2nccc(-c3c(-c4cccc(O)c4)nc4occn34)n2)CC1` [Compound 9, 3-(5-(2-(1-(4-fluorophenylsulfonyl)piperidin-4-ylamino)pyrimidin-4-yl)imidazo[2,1-b]oxazol-6-yl)phenol], the concentration for 50% growth inhibition (GI50) in the data set on SK-MEL-28 is 300 nM; in the data set on A375, under 0.4 nM; with RKO it was 283 nM; in the data set on WM-266-4 it was under 0.4 nM; in the data set with SK-MEL-2 it was 356 nM; in the data set with DLD-1, 1620 nM. Further, the IC50 on mutant B-RAF stood at 48 nM. Besides, the EC50 in the data set with p-Erk (A375) is 129 nM.

For `Cn1ccc(S(=O)(=O)N2CCC[C@@H](Nc3nccc(-c4c(-c5ccc(F)c(O)c5)nc5occn45)n3)C2)n1` [Compound 22, (R)-2-fluoro-5-(5-(2-(1-(1-methyl-1H-pyrazol-3-ylsulfonyl)piperidin-3-ylamino)pyrimidin-4-yl)imidazo[2,1-b]oxazol-6-yl)phenol], the 50% growth inhibitory concentration (GI50) with SK-MEL-28 is 33 nM; in the data set on A375, under 0.4 nM; in the data set on RKO it was 52 nM; in the data set with WM-266-4 it was under 0.4 nM; in the data set on SK-MEL-2 it was 42.8 nM; in the data set with DLD-1, 5920 nM. In addition, at mutant B-RAF, the IC50 came to 0.96 nM. This molecule also returned an EC50 with p-Erk (A375) of 34 nM.
